Assay results reported in ChEMBL document CHEMBL1201862, “PubChem BioAssay data set” (2004).
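Five compound concentrations were applied to cells in 96-well plates for 48 hours; endpoints were derived by simple linear interpolation of the resulting dose-response curve. At the GI50, growth is halved.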 The source made the active and inactive calls. Rule as the data show it: active = GI50 up to about 1.1 µM and inactive = higher.

How the values were obtained:
Assay in all cases: DTP human tumour cell line panel, 48 h
[1] = system: OVCAR-3
[2] = system: SK-MEL-5
[3] = system: COLO 205
[4] = system: HT-29
[5] = system: NCI-H460
[6] = system: LXFL 529
[7] = system: K562
[8] = system: CAKI-1
[9] = system: DLD-1
[10] = system: SNB-19
[11] = system: ACHN
[12] = system: OVCAR-5
[13] = system: KM12
[14] = system: M19-MEL
[15] = system: Malme-3M
[16] = system: SR
[17] = system: RXF 393
[18] = system: NCI-H226
[19] = system: BT-549
[20] = system: SNB-78

Measured: GI50

CCCN1CN(C(C(=O)N[C@@H]2C(=O)N3C2SC(C)(C)C3C(=O)O)c2ccc(O)cc2)CSC1=S (some centres undefined)
inactive: [1] 23.6 µM | [2] > 100 µM | [3] 29.8 µM | [4] > 100 µM | [5] > 100 µM | [6] 61.4 µM | [7] 24.4 µM | [8] > 100 µM | [9] 52.8 µM | [10] > 100 µM | [11] > 100 µM | [12] > 100 µM | [13] > 100 µM | [14] > 100 µM | [15] > 100 µM

CCOC(=O)NC(=O)c1cn(C2OC(CO)C(O)C2O)c(=O)[nH]c1=O (centres undefined)
inactive: [1] > 100 µM | [16] > 100 µM | [2] > 100 µM | [4] > 100 µM | [5] > 100 µM | [6] > 100 µM | [7] > 100 µM | [17] > 100 µM | [8] > 100 µM | [9] > 100 µM | [18] > 100 µM | [10] > 100 µM | [11] > 100 µM | [12] > 100 µM | [13] > 100 µM | [14] > 100 µM | [15] > 100 µM

COC1CC(n2cnc3c(N)ncnc32)OC1CO (centres undefined)
inactive: [1] > 100 µM | [16] > 100 µM | [2] > 100 µM | [3] > 100 µM | [4] > 100 µM | [5] > 100 µM | [6] > 100 µM | [7] > 100 µM | [8] > 100 µM | [9] > 100 µM | [18] > 100 µM | [10] > 100 µM | [11] > 100 µM | [12] > 100 µM | [13] > 100 µM | [14] > 100 µM | [15] > 100 µM

CNS(=O)(=O)NN(C)S(=O)(=O)c1ccc2ccccc2c1
inactive: [16] > 100 µM | [2] > 100 µM | [3] > 100 µM | [4] > 100 µM | [6] > 100 µM | [7] > 100 µM | [17] > 100 µM | [8] > 100 µM | [9] > 100 µM | [18] > 100 µM | [10] > 10 µM | [11] > 100 µM | [13] > 100 µM | [14] > 100 µM | [15] > 100 µM

CCCC(=O)N[C@@H](Cc1cc(I)c(O)c(I)c1)C(=O)NCCCNCCCCNCCCNC(=O)[C@@H](N)CCCN=C(N)N
inactive: [1] > 100 µM | [16] > 100 µM | [2] 36.6 µM | [3] 40.6 µM | [4] > 100 µM | [5] 34.2 µM | [6] 78 µM | [7] 45.1 µM | [17] > 100 µM | [18] > 100 µM | [10] > 100 µM | [11] 40.1 µM | [13] 55 µM | [14] 40.1 µM | [15] > 100 µM

O=CC(NC(=O)N(CCCl)N=O)C(O)C(O)C(O)CO (centres undefined)
inactive: [1] > 1250 µM | [16] 78.7 µM | [2] 425 µM | [3] > 1250 µM | [4] > 1250 µM | [5] 272 µM | [7] 575 µM | [17] 1150 µM | [19] 499 µM | [8] 798 µM | [9] > 1250 µM | [18] 1240 µM | [10] 312 µM | [11] 346 µM | [12] 1140 µM | [13] > 1250 µM | [15] 347 µM

CC(CC(=O)Nc1ccc(NC(=O)CC(C)/N=N\C(N)=O)cc1)/N=N\C(N)=O (centres undefined)
inactive: [1] > 100 µM | [16] 22.8 µM | [2] > 100 µM | [3] 34.8 µM | [4] > 100 µM | [5] 50.9 µM | [6] > 100 µM | [7] > 100 µM | [17] > 100 µM | [8] > 100 µM | [9] 34.5 µM | [18] > 100 µM | [10] > 100 µM | [11] > 100 µM | [12] > 100 µM | [13] > 100 µM | [14] > 100 µM | [15] > 100 µM

COc1ccc(CN2CC(C)(C)C2=O)c(OC)c1
inactive: [1] > 100 µM | [2] > 100 µM | [3] > 100 µM | [4] > 100 µM | [5] > 100 µM | [7] > 100 µM | [17] > 100 µM | [20] > 100 µM | [18] > 100 µM | [10] > 100 µM | [11] > 100 µM | [13] > 100 µM | [14] > 100 µM | [15] > 100 µM

Nc1ncnc2ccc(Sc3ccc4ncnc(N)c4c3)cc12
inactive: [1] > 100 µM | [16] > 100 µM | [2] > 100 µM | [3] > 100 µM | [4] > 100 µM | [5] > 100 µM | [7] > 100 µM | [17] > 100 µM | [19] > 100 µM | [8] > 100 µM | [18] > 100 µM | [10] > 100 µM | [11] > 100 µM | [12] > 100 µM | [13] > 100 µM | [15] > 100 µM
